Values of other authors in patent US20060153908A1, “Spherical pellet formulations” (priority 2002, published 2006).
Where a name gives a salt, the structure may show the parent alone.

Conditions: in water

COc1cccc(C2(O)CCCCC2CN(C)C)c1 (single isomer, unassigned) [Tramadol hydrochloride, (1R,2R or 1S,2S)-2-[(dimethylamino)methyl]-1-(3-methoxyphenyl)-cyclohexanol]
water solubility: very water-soluble
